Patent US20160376605A1, “WHEAT PLANTS HAVING INCREASED TOLERANCE TO IMIDAZOLINONE HERBICIDES” (BASF SE, priority 2003, published 2016)

Assays:
Durum line C119 = assay: Greenhouse Trial: plant injury rating, imazamox; format: in vivo, Durum wheat; details: 0-9 scale, 0 = no injury, 9 = plant death
Method: (§1) Fifteen Durum lines, each derived from a different M2 plant, and two wild type durum lines were evaluated for tolerance to the imidazolinone herbicide imazamox at rates of 100 and 160 g/ha in a greenhouse trial. Evaluations of tolerance were made at 14 and 21 days after treatment. Injury was scored on a 0-9 scale, with 0 representing no injury and 9 plant death.

Durum line UT10 = assay: Greenhouse Trial: plant injury rating, imazamox; format: in vivo, Durum wheat; details: 0-9 scale, 0 = no injury, 9 = plant death
Method: as §1

Durum line UT12 = assay: Greenhouse Trial: plant injury rating, imazamox; format: in vivo, Durum wheat; details: 0-9 scale, 0 = no injury, 9 = plant death
Method: as §1

Durum line UT13 = assay: Greenhouse Trial: plant injury rating, imazamox; format: in vivo, Durum wheat; details: 0-9 scale, 0 = no injury, 9 = plant death
Method: as §1

Durum line UT14 = assay: Greenhouse Trial: plant injury rating, imazamox; format: in vivo, Durum wheat; details: 0-9 scale, 0 = no injury, 9 = plant death
Method: as §1

Durum line UT15 = assay: Greenhouse Trial: plant injury rating, imazamox; format: in vivo, Durum wheat; details: 0-9 scale, 0 = no injury, 9 = plant death
Method: as §1

Durum line UT16 = assay: Greenhouse Trial: plant injury rating, imazamox; format: in vivo, Durum wheat; details: 0-9 scale, 0 = no injury, 9 = plant death
Method: as §1

Durum line UT17 = assay: Greenhouse Trial: plant injury rating, imazamox; format: in vivo, Durum wheat; details: 0-9 scale, 0 = no injury, 9 = plant death
Method: as §1

Durum line UT19 = assay: Greenhouse Trial: plant injury rating, imazamox; format: in vivo, Durum wheat; details: 0-9 scale, 0 = no injury, 9 = plant death
Method: as §1

Durum line UT20 = assay: Greenhouse Trial: plant injury rating, imazamox; format: in vivo, Durum wheat; details: 0-9 scale, 0 = no injury, 9 = plant death
Method: as §1

Durum line UTO1 = assay: Greenhouse Trial: plant injury rating, imazamox; format: in vivo, Durum wheat; details: 0-9 scale, 0 = no injury, 9 = plant death
Method: as §1

Durum line UTO3 = assay: Greenhouse Trial: plant injury rating, imazamox; format: in vivo, Durum wheat; details: 0-9 scale, 0 = no injury, 9 = plant death
Method: as §1

Durum line UTO5 = assay: Greenhouse Trial: plant injury rating, imazamox; format: in vivo, Durum wheat; details: 0-9 scale, 0 = no injury, 9 = plant death
Method: as §1

Durum line UTO7 = assay: Greenhouse Trial: plant injury rating, imazamox; format: in vivo, Durum wheat; details: 0-9 scale, 0 = no injury, 9 = plant death
Method: as §1

Durum line UTO8 = assay: Greenhouse Trial: plant injury rating, imazamox; format: in vivo, Durum wheat; details: 0-9 scale, 0 = no injury, 9 = plant death
Method: as §1

[1] = tested on: Wild Type Line UT (durum); assay: Greenhouse Trial: plant injury rating, imazamox; format: in vivo, Durum wheat; details: for Average plant injury rating: Wild Type Line UT, 0-9 scale, 0 = no injury, 9 = plant death
Method: as §1

susceptible durum wheat = assay: Imazamox rate killing susceptible wheat; format: in vivo
Method: Nine M4:6 lines derived from four M2 plants (C119, C132, C137, CO12) were evaluated in a replicated trial at one location in a durum growing area in Italy. 75 g/ha of imazamox was applied to BBCH growth stage 21-25 plants. A rate of 35 g/ha would typically result in virtually 100% mortality of susceptible wheat. Percent crop response (overall injury) varied from 0 to 13% 21 days after treatment (DAT), and from 0 to 17% 43 DAT. Yield as a percent of the same line untreated varied from 85% to 102%.
(§2) All tested lines survived at both rates of herbicide treatment, whereas all plants of the wild type were killed at both rates. Based on comparison to the wild type line, all lines tested expressed considerable tolerance to the applied rates, particularly when looking at height reduction relative to untreated plots. A rate of 35 g/ha imazamox is adequate to kill susceptible durum wheat.
(§3) A rate of 35 g/ha imazamox is adequate to kill susceptible Durum wheat.

[2] = tested on: One hundred ten M3:4 durum lines derived from sixteen M2 plants; assay: Field Trials (2): all tested M3:4 lines; format: in vivo, Durum wheat
Excerpt: One hundred ten M3:4 lines derived from sixteen M2 plants were screened at 71 g/ha and 160 g/ha imazamox. The number of M4 lines per M2 plant varied from one to twenty. Tolerance of M3:4 lines was compared to untreated plots of the same line as well as to treated plots of a wild-type cultivar from which some of them were derived.
as §2

[3] = tested on: AHAS of M2-derived imidazolinone herbicide tolerant lines; assay: In vitro AHAS activity, tolerant lines overall; format: biochemical, Durum wheat; details: highest concentration of imazamox (100 uM), 'generally'
Excerpt: The in vitro activity of AHAS enzyme extracted from the plant can be measured biochemically. […] Even at relatively low concentrations, AHAS activity falls off rapidly.
Table 3 also contains AHAS activity data for several M2-derived imidazolinone herbicide tolerant lines.

[4] = tested on: Fifteen Durum lines, each derived from a different M2 plant; assay: Greenhouse Trial: all fifteen mutagenesis-derived lines; format: in vivo, Durum wheat; details: 100 and 160 g/ha imazamox
Method: as §1, §3

COCc1cnc(C2=NC(C)(C(C)C)C(=O)N2)c(C(=O)O)c1 (centres unmarked) [imazamox]
Average plant injury rating (Durum line C119; imazamox 100 g/ha, 14 DAT): 4.8 | Average plant injury rating (Durum line C119; imazamox 100 g/ha, 21 DAT): 1.0 | Average plant injury rating (Durum line C119; imazamox 160 g/ha, 14 DAT): 4.9 | Average plant injury rating (Durum line C119; imazamox 160 g/ha, 21 DAT): 1.4 | Average plant injury rating (Durum line UT10; imazamox 100 g/ha, 14 DAT): 5.8 | Average plant injury rating (Durum line UT10; imazamox 100 g/ha, 21 DAT): 4.3 | Average plant injury rating (Durum line UT10; imazamox 160 g/ha, 14 DAT): 6.5 | Average plant injury rating (Durum line UT10; imazamox 160 g/ha, 21 DAT): 5.1 | Average plant injury rating (Durum line UT12; imazamox 100 g/ha, 14 DAT): 4.8 | Average plant injury rating (Durum line UT12; imazamox 100 g/ha, 21 DAT): 2.1 | Average plant injury rating (Durum line UT12; imazamox 160 g/ha, 14 DAT): 5.7 | Average plant injury rating (Durum line UT12; imazamox 160 g/ha, 21 DAT): 2.8 | Average plant injury rating (Durum line UT13; imazamox 100 g/ha, 14 DAT): 4.7 | Average plant injury rating (Durum line UT13; imazamox 100 g/ha, 21 DAT): 2.3 | Average plant injury rating (Durum line UT13; imazamox 160 g/ha, 14 DAT): 5.8 | Average plant injury rating (Durum line UT13; imazamox 160 g/ha, 21 DAT): 3.4 | Average plant injury rating (Durum line UT14; imazamox 100 g/ha, 14 DAT): 3.1 | Average plant injury rating (Durum line UT14; imazamox 100 g/ha, 21 DAT): 1.7 | Average plant injury rating (Durum line UT14; imazamox 160 g/ha, 14 DAT): 4.8 | Average plant injury rating (Durum line UT14; imazamox 160 g/ha, 21 DAT): 3.5 | Average plant injury rating (Durum line UT15; imazamox 100 g/ha, 14 DAT): 4.3 | Average plant injury rating (Durum line UT15; imazamox 100 g/ha, 21 DAT): 2.7 | Average plant injury rating (Durum line UT15; imazamox 160 g/ha, 14 DAT): 4.6 | Average plant injury rating (Durum line UT15; imazamox 160 g/ha, 21 DAT): 3.0 | Average plant injury rating (Durum line UT16; imazamox 100 g/ha, 14 DAT): 5.4 | Average plant injury rating (Durum line UT16; imazamox 100 g/ha, 21 DAT): 2.0 | Average plant injury rating (Durum line UT16; imazamox 160 g/ha, 14 DAT): 4.9 | Average plant injury rating (Durum line UT16; imazamox 160 g/ha, 21 DAT): 2.8 | Average plant injury rating (Durum line UT17; imazamox 100 g/ha, 14 DAT): 4.1 | Average plant injury rating (Durum line UT17; imazamox 100 g/ha, 21 DAT): 2.5 | Average plant injury rating (Durum line UT17; imazamox 160 g/ha, 14 DAT): 4.7 | Average plant injury rating (Durum line UT17; imazamox 160 g/ha, 21 DAT): 3.1 | Average plant injury rating (Durum line UT19; imazamox 100 g/ha, 14 DAT): 3.3 | Average plant injury rating (Durum line UT19; imazamox 100 g/ha, 21 DAT): 1.1 | Average plant injury rating (Durum line UT19; imazamox 160 g/ha, 14 DAT): 3.6 | Average plant injury rating (Durum line UT19; imazamox 160 g/ha, 21 DAT): 1.7 | Average plant injury rating (Durum line UT20; imazamox 100 g/ha, 14 DAT): 5.0 | Average plant injury rating (Durum line UT20; imazamox 100 g/ha, 21 DAT): 2.1 | Average plant injury rating (Durum line UT20; imazamox 160 g/ha, 14 DAT): 5.3 | Average plant injury rating (Durum line UT20; imazamox 160 g/ha, 21 DAT): 2.5 | Average plant injury rating (Durum line UTO1; imazamox 100 g/ha, 14 DAT): 4.0 | Average plant injury rating (Durum line UTO1; imazamox 100 g/ha, 21 DAT): 1.4 | Average plant injury rating (Durum line UTO1; imazamox 160 g/ha, 14 DAT): 4.1 | Average plant injury rating (Durum line UTO1; imazamox 160 g/ha, 21 DAT): 2.6 | Average plant injury rating (Durum line UTO3; imazamox 100 g/ha, 14 DAT): 4.8 | Average plant injury rating (Durum line UTO3; imazamox 100 g/ha, 21 DAT): 2.2 | Average plant injury rating (Durum line UTO3; imazamox 160 g/ha, 14 DAT): 5.2 | Average plant injury rating (Durum line UTO3; imazamox 160 g/ha, 21 DAT): 2.8 | Average plant injury rating (Durum line UTO5; imazamox 100 g/ha, 14 DAT): 3.0 | Average plant injury rating (Durum line UTO5; imazamox 100 g/ha, 21 DAT): 1.3 | Average plant injury rating (Durum line UTO5; imazamox 160 g/ha, 14 DAT): 3.3 | Average plant injury rating (Durum line UTO5; imazamox 160 g/ha, 21 DAT): 1.8 | Average plant injury rating (Durum line UTO7; imazamox 100 g/ha, 14 DAT): 3.7 | Average plant injury rating (Durum line UTO7; imazamox 100 g/ha, 21 DAT): 1.9 | Average plant injury rating (Durum line UTO7; imazamox 160 g/ha, 14 DAT): 4.4 | Average plant injury rating (Durum line UTO7; imazamox 160 g/ha, 21 DAT): 2.5 | Average plant injury rating (Durum line UTO8; imazamox 100 g/ha, 14 DAT): 4.5 | Average plant injury rating (Durum line UTO8; imazamox 100 g/ha, 21 DAT): 1.9 | Average plant injury rating (Durum line UTO8; imazamox 160 g/ha, 14 DAT): 5.5 | Average plant injury rating (Durum line UTO8; imazamox 160 g/ha, 21 DAT): 3.0 | Average plant injury rating ([1]; imazamox 100 g/ha, 14 DAT): 8.9 | Average plant injury rating ([1]; imazamox 100 g/ha, 21 DAT): 9.0 | Average plant injury rating ([1]; imazamox 160 g/ha, 14 DAT): 9.0 | Average plant injury rating ([1]; imazamox 160 g/ha, 21 DAT): 9.0 | survival of wild type plants ([1]; imazamox 100 and 160 g/ha, by 21 days after treatment): killed | rate adequate to kill susceptible durum wheat (susceptible durum wheat; imazamox application rate): 35 g/ha | mortality at 35 g/ha (susceptible durum wheat; read-out: mortality of susceptible wheat): ~100% | survival of tested lines ([2]; imazamox 71 g/ha and 160 g/ha (both rates), all tested M3:4 lines): survived | tolerated rate relative to the 35 g/ha rate that kills susceptible durum wheat ([2]; lines evaluated at 71 and 160 g/ha imazamox): almost 3 times to over 4 times | AHAS activity relative to that of the control [3]: one third to one half | tolerance to imazamox [4]: excellent tolerance
